According to patent US10350210B2, “EGFR and ALK dual inhibitor” (PRECEDO PHARMACEUTICALS CO., LTD, priority 2015, dated 2019):

Key:
ALK protein (H3122) = assay: Effect on signaling pathway in cells, H3122; format: cell-based, human; conditions: H3122 (expressing ALK gene), 4 h
Description: In non-small cell lung cancer cell line H3122 (expressing ALK gene), the effect of Compound 1 on other protein kinases that are closely related to ALK such as Stat3, Ras, MEK1/2, ErK, mTOR, PI3K, JAK3, AKT in this cell was assessed by assaying a number of cellular biochemical and functional endpoints. […] The effect of Compound 1 on phosphorylation of Stat3 Y705, Ras, MEK1/2S217/221, Erk T202/204, mTOR, PI3K, JAK3Tyr980/981, AKT T308, AKT 5473 in this cell line was assayed (FIG. 1e).
In non-small cell lung cancer cell line H3122 (expressing ALK gene), the effect of Compound 10 on ALK and other protein kinases that are closely related to ALK such as Stat3, Ras, MEK1/2, ErK, mTOR, PI3K, JAK3, AKT in this cell was assessed by assaying a number of cellular biochemical and functional endpoints. The lung cancer cell H3122 (expressing ALK gene) was treated with different concentrations of 0 μM, 0.03 μM, 0.1 μM, 0.3 μM, 1 μM, 3 μM of Compound 10 (in DMSO), 1 μM of AZD9291 (in DMSO) (purchased from Shanghai Haoyuan Chemexpress Co., Ltd.), 1 μM of LDK378 (in DMSO) (purchased from Shanghai Haoyuan Chemexpress Co., Ltd.), and blank control (DMSO) for 4 h, and the samples were collected. The effect of Compound 10 on phosphorylation of ALK Y1604, Stat3 Y705, Ras, MEK1/25217/221, Erk T202/204, mTOR, PI3K, JAK3 Tyr980/981, AKT T308, AKT S473 in this cell line was assayed (FIG. 1f).

[1] = test system: non-small cell lung cancer cell H3122 subcutaneous tumors; assay: Mouse tumor model of non-small cell lung cancer cell H3122; format: in vivo; conditions: for tumor inhibition rate: Bal b/c mice
Description: Similarly, 72 Bal b/c female mice, 4-6 weeks old, were purchased from Shanghai SLAC Laboratory Animal Co., Ltd., and maintained in an SPF laboratory. Drinking water and bedding were both sterilized by autoclaving. All operations involving the mice were performed under aseptic conditions. At day 0, 5×10^6 non-small cell lung cancer cells H3122 (purchased from ATCC) were injected subcutaneously into the left flank of all mice. At day 15, all mice were divided into eight groups (9 mice per group), and the first group of mice were orally administered with methyl cellulose (HKI) solvent, the second group of mice were orally administered with Compound 1 at a dose of 5 mg/kg mouse weight, the third group of mice were orally administered with Compound 1 at a dose of 10 mg/kg mouse weight, the fourth group of mice were orally administered with Compound 1 at a dose of 20 mg/kg mouse weight, the fifth group of mice were orally administered with methyl cellulose (HKI) solvent, the sixth group of mice were orally administered with Compound 10 at a dose of 10 mg/kg mouse weight, the seventh group of mice were orally administered with Compound 10 at a dose of 20 mg/kg mouse weight, and the eighth group of mice were orally administered with Compound 10 at a dose of 40 mg/kg mouse weight daily. Starting from the administration, the length/width of the subcutaneous tumor was measured daily with a vernier caliper, and the weight of the mice was recorded daily to observe the effect of Compounds 1 and 10 on the body weight of the mice. For the first to fourth groups, the mice were sacrificed at day 36 and the subcutaneous tumors were collected. The tumors were weighed, and then the tumor tissues were used to prepare protein lysates for use. The growth trend of the subcutaneous tumor within 16-36 days was plotted, wherein the tumor volume was calculated as length×width×width/2 mm^3. For the fifth to eighth groups, the mice were sacrificed at day 43 and the subcutaneous tumors were collected. The tumors were weighed, and then the tumor tissues were used to prepare protein lysates for use. The growth trend of the subcutaneous tumor within 16-43 days was plotted, wherein the tumor volume was calculated as length×width×width/2 mm^3.

Compound | concentration able to significantly inhibit the phosphorylation of ALK protein (ALK protein (H3122)) [µM] | concentration that almost completely inhibited the phosphorylation of ALK protein (ALK protein (H3122)) [µM] | effects on other protein kinases closely related to ALK protein (Stat3, Ras, MEK1/2, ErK, JAK3, AKT) (ALK protein (H3122)) | tumor inhibition rate ([1]; oral daily 10 mg/kg, on the second day of administration) [%] | tumor inhibition rate ([1]; oral daily 20 mg/kg) [%] | body weight of the mice ([1]; oral daily 10 mg/kg) | tumor inhibition rate ([1]; oral daily 40 mg/kg) [%] | body weight of the mice ([1]; oral daily 20 mg/kg) | body weight of the mice ([1]; oral daily 40 mg/kg)
C=CC(=O)Nc1cc(Nc2ncc(Cl)c(Nc3ccccc3S(=O)(=O)C(C)C)n2)c(OC)cc1N1CCN(CC)CC1 [Compound 1, N-(5-(5-chloro-4-(2-(isopropylsulfonyl)phenylamino)pyrimidin-2-ylamino)-2-(4-ethylpiperazin-1-yl)-4-methoxyphenyl)acrylamide] | 0.1 | 0.3 | evident effects | 61.5 | 77.7 | did not decrease | – | – | –
C=CC(=O)Nc1cc(Nc2ncc(Cl)c(Nc3ccccc3S(=O)(=O)C(C)C)n2)c(OC)cc1N1CCCN(C)CC1 [Compound 10, N-(5-(5-chloro-4-(2-(isopropylsulfonyl)phenylamino)pyrimidin-2-ylamino)-4-methoxy-2-(4-methyl-1,4-homopiperazin-1-yl)phenyl)acrylamide] | 0.03 | 0.1 | evident effects | – | 68.3 | – | 78.4 | did not decrease | did not decrease
